“Also recorded” adds a separate entry of the source.
How the values were obtained:
[1] = target: 97 kinases; assay: Eurofins DiscoverX ScanEDGE kinase panel; assay type: biochemical; details: compound no. 69 at 3 μM; saracatinib stock 30 μM = 1000× testing concentration; activity = <35% of control
Description: (§1) 69 and compound no. […] Since Fyn was not included in that panel, a custom panel was completed for Fyn kinase activity.

[2] = tested on: endogenous Tau-Fyn interaction; assay: Endogenous Tau-Fyn PLA in primary neurons; assay type: cell-based, rat; details: 3 μM and 15 μM, 24 hours
Description: Endogenous Tau-Fyn PL, in primary neurons: All PLA protocols were adapted from our recent study (Rush, et al. (2020) Neurobiol Dis 134, 104668).
For the endogenous Tau-Fyn PLA, neurons were grown on coverslips as described above to DIV20, then treated with compound no. 69 or vehicle, and fixed with PFA 24 hours later. Dako Tau (1:1000) and Fyn15 (1:250) antibodies were used. Duolink In Situ Fluorescence kit was used for PLA. Briefly, coverslips with fixed cells were permeabilized for 10 minutes in 0.25% Triton X-100, then blocked in 5% NGS in PBS for one hour at room temperature. Coverslips were incubated overnight at 4° C. with primary antibody in 1% NGS, then washed 3×5 minutes in PBS. Coverslips were then incubated for 1 hour at 37° C. in PLA probes (Anti-Mouse minus, Anti-Rabbit plus). […] To quantify PLA puncta, PLA fluorescence was thresholded, then ImageJ particle analyzer was run, specifying size and circularity to exclude any non-punctate signal. Quantified values were then normalized to values for vehicle-treated slides from that experiment. […]

[3] = tested on: endogenous Tau-tubulin interaction; assay: Tau-Tubulin PLA in HEK-293 cells; assay type: cell-based, human; details: 15 μM, 24 hours, untransfected HEK-293 cells
Description: Tau-Tubulin PLA: Untransfected HEK-293 cells were used to measure endogenous Tau-tubulin interaction. Cells were grown for 48 hours before applying 15 µM compound no. 69 for 24 hours. Cells were fixed and PLA was run as above except with Dako Tau (1:1000) and α-tubulin (1:2000) primary antibodies.

[4] = target: full-length Tau (Homo sapiens (Human), UniProt P10636); assay: Isothermal titration calorimetry, full-length Tau; assay type: binding
Description: Human Fyn-SH3 domain with GST-tag at the N-terminus and a Strep-tag II ([…]) at the C-terminus (GST-Fyn-SH3-Strep) was cloned into pPR-IBA1 vector (IBA Lifesciences) (Cochran, et al. (2014) J. Biomol. Screen. 19, 1338-1349). Codon-optimized human 4R2N Tau for E. coli expression with a Strep-tag II at the C-terminus (His-Tau-Strep) was cloned into pET-28a(+) vector (Novagen). The constructs were transformed into E. coli BL-21(DE3) competent cells (Novagen). For GST-Fyn-SH3-Strep purification, a single colony was inoculated in Luria-Bertani (LB) broth at 37° C. overnight. 10 mL cell culture was added into 500 mL LB medium and cultured at 37° C. 0.5 mM Isopropyl β-D-1-thiogalactopyranoside (IPTG) was added into the culture when OD600 reached 0.7. Cells were further cultured at 25° C. for 4 hours and harvested. Cell pellet was resuspended in lysis buffer (20 mM Tris pH 7.9, 300 mM NaCl, 1 mM TCEP) with 1 tablet of EDTA-free protease inhibitors (ThermoFisher) and 1 mg/ml lysozyme. Cells were disrupted by sonication and debris was removed by centrifugation at 9500 rpm for 1 hour. Supernatant was loaded onto a glutathione-sepharose column (Cytiva). The column was washed in lysis buffer and protein eluted in lysis buffer containing 25 mM reduced glutathione. For His-Tau-Strep protein purification, cells were inoculated in LB broth medium and cultured at 37° C. overnight. A 10 mL overnight culture was added to 500 mL of auto-induction medium (Studier, F. W. (2005) Protein Expr Purif 41, 207-34) and cells were cultured at 37° C. for about 5 hours. The temperature was lowered to 18° C., and cells were cultured overnight. Cells were harvested and resuspended in lysis buffer with 20 mM imidazole, protease inhibitors, and lysozyme. Cells were disrupted by sonication and cell pellets were spun down at 9500 rpm for 1 hour. Supernatant was loaded onto Ni-NTA column (Cytiva) and the column was washed in lysis buffer with 20 mM imidazole. His-Tau-Strep protein was eluted in lysis buffer containing 400 mM imidazole. Both eluted GST-Fyn-SH3-Strep and His-Tau-Strep protein solutions were passed through G-25 desalting column (Cytiva) with lysis buffer and loaded onto high capacity Strep-Tactin column (IBA Lifesciences). The columns were washed in Buffer W (IBA Life sciences) and proteins were eluted in Buffer E (IBA life sciences). The eluted proteins were passed through G-25 desalting column again. […]
Purified full-length Tau and FynSH3 were dialyzed into 20 mM Tris and 150 mM NaCl, pH 8.0 with Slide-A-Lyzer G2 Dialysis Cassettes with 10K MWCO (ThermoFisher #87729). […] Protein concentrations were measured on a Nanodrop2000 (ThermoFisher) based on absorbance at 280 nm. […]

[5] = target: Fyn kinase (Homo sapiens (Human), UniProt P06241); assay: Custom panel for Fyn kinase activity; assay type: biochemical; details: 3 μM
Description: as §1

Sequence of full-length Tau (P10636 other isoform, or with tags, fused parts or gaps): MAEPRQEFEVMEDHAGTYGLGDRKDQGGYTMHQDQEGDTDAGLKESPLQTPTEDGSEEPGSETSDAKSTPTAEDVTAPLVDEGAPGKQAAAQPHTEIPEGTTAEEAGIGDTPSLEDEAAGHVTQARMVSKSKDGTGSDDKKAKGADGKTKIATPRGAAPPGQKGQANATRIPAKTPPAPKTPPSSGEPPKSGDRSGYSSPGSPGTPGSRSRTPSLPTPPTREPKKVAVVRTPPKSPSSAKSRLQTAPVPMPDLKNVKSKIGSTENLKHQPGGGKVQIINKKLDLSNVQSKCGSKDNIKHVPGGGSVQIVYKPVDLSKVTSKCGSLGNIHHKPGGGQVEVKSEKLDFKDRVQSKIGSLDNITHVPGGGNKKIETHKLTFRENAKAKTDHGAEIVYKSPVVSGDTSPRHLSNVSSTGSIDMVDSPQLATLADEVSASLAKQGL
Sequence of Fyn kinase (P06241 whole entry): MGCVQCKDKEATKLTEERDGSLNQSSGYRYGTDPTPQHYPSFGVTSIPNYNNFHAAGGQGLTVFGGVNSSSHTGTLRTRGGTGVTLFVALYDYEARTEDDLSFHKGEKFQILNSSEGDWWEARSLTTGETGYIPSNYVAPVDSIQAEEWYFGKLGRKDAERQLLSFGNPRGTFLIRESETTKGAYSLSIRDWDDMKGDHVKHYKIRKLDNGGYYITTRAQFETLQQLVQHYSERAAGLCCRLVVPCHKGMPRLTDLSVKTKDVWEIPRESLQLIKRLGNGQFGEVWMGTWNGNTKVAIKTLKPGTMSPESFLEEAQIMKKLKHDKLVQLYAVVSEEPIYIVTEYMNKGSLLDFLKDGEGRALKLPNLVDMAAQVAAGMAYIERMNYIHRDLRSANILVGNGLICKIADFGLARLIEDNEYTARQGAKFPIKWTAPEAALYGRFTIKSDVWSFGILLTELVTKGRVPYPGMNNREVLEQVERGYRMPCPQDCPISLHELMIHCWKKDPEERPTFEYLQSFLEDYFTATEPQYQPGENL

Structure (SMILES): O=C(CN1CCOc2ccccc21)Nc1nnc(-c2ccccn2)[nH]1 [compound no. 69]
- kinase inhibition, panel of 97 kinases [1]: did not inhibit Fyn or any of the 97 kinases; also recorded: is not a kinase inhibitor
- endogenous Tau-Fyn interaction, PLA in primary neurons [2]: inhibited endogenous Tau-Fyn interaction at both 3 μM and 15 μM; also recorded: reduces endogenous Tau-Fyn PLA
- Tau-tubulin interaction, PLA [3]: did not inhibit Tau-tubulin binding; also recorded: does not inhibit Tau-tubulin interaction
- ΔG, ITC with full-length Tau ([4]; 25° C.): -6.7 kcal/mol
- ΔH, ITC with full-length Tau ([4]; 25° C.): -1.5 kcal/mol
- Kd ([4]; 25° C., read-out: Kd, ITC with full-length Tau): 11.9 µM
- n, ITC with full-length Tau ([4]; one set of sites model): 0.9
- Fyn kinase inhibition [5]: did not inhibit Fyn

Reference: patent US20250367209A1 (SOUTHERN RESEARCH INSTITUTE, priority 2022, published 2025)
